Laboratory results: patent publication US20240228493A1, “LRRK2 INHIBITORS AND USES THEREOF” (NEURON23, ICN., priority 2022, published 2024)

How the values were obtained:
[1] = Brain penetration (Kp,uu) in CD-1 mice after single IV bolus, with plasma and brain binding by equilibrium dialysis; format: in vivo; conditions: mouse, brain and plasma (unbound brain/unbound plasma), male CD-1 mice, single IV bolus 1 mg/kg
Procedure: The compounds disclosed herein were tested on CD-1 mice for brain penetration (Kp, uu) according to the following procedures.
Nine male CD-1 mice were administered TEST COMPOUND by single intravenous bolus administration at 1 mg/kg. The vehicle used for IV study was 5% DMSO, 5% solutol, 20% PEG300 and 70% water. The detailed dosing and sampling regimens are described in the following tables.
The body weights were in the range from 28.81 to 31.25 g for males on the first dosing day. All animals received a single intravenous bolus administration of TEST COMPOUND from the tail vein.
Each blood collection (about 0.06 mL per time point) was performed from saphenous vein of each animal into pre-chilled commercial K2-EDTA tubes as anti-coagulant and placed on wet ice until centrifugation.
Brain tissue was homogenized using homogenizing buffer (15 mM PBS (pH7.4): MeOH=2:1) at the ratio of 1:9 (1 g tissue with 9 mL buffer, the dilution ratio is 10). The tissue homogenate was kept at −60° C. or lower until LC-MS/MS analysis.
The concentrations of TEST COMPOUND in plasma and brain were determined by using an LC-MS/MS method.
The plasma and brain concentration of TEST COMPOUND in study animals was subjected to a non-compartmental pharmacokinetic analysis by using the Phoenix WinNonlin software program (version 6.3 or above, Pharsight). The linear/log trapezoidal rule was applied in obtaining the PK parameters.
Mouse Kp, uu=(% free in mouse brain*concentration in mouse brain)/(% free in mouse plasma*concentration in mouse plasma)
(§1) The dialysis apparatus was assembled according to the manufacturer's instruction. Each Cell was filled with 120 μL of spiked plasma sample and dialyzed against equal volume of dialysis buffer (PBS). The assay was performed in duplicate. The dialysis plates were sealed and incubated in an incubator at 37° C. with 5% CO2 and rotated at 100 rpm for 6 hours. At the end of incubation, the seals were removed and 50 μL of samples from both buffer and plasma chambers were transferred to a 96-well plate.
as §1, with “with 150” for “with 120”, “of brain homogenate” for “of spiked plasma”, “and brain homogenate” for “and plasma”, “transferred into separate tubes on” for “transferred to”, “a” for “a 96-well”

Caco-2 cells = experiment: Caco-2 bidirectional permeability; format: in vitro ADME; conditions: for Caco-2 ER: Efflux Ratio=Papp(BA)/Papp(AB); for Caco-2 A2B (10^−6 cm/s): apical to basolateral; for Caco-2 A2B (10^−6 cm/s) / Caco-2 B2A (10^−6 cm/s): 2 hours, pH 7.4; for Caco-2 B2A (10^−6 cm/s): basolateral to apical
Procedure, shortened: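 Caco-2 monolayers were grown 21–28 days on PET inserts and run in duplicate in HBSS with 10 mM HEPES, pH 7.4. Test compound was dosed bidirectionally at […] for 2 h at 37 °C; quantification was by LC-MS/MS. Papp and efflux ratio (B-A/A-B) were calculated, with lucifer yellow monolayer integrity checks.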

| SMILES | Kp uu [1] | Caco-2 ER (Caco-2 cells) | Caco-2 B2A (10^−6 cm/s) (Caco-2 cells) | Caco-2 A2B (10^−6 cm/s) (Caco-2 cells) |
| --- | --- | --- | --- | --- |
| Cc1n[nH]c2c1N=C(c1c(F)cccc1F)Nc1cnc(N3CCS(=O)(=O)CC3)cc1-2 [Example 2, 4-[8-(2,6-difluorophenyl)-5-methyl-3,4,7,9,12-pentazatricyclo[8.4.0.02,6]tetradeca-1(10),2(6),4,7,11,13-hexaen-13-y1]-1,4-thiazinane 1,1-dioxide] | < 0.1 | L (L (Likely)”: ER≥2.5) | H (H (High permeability)”: A2B (B2A)>5) | L (L (Low permeability)”: A2B (B2A)<1) |
| [2H]C1([2H])OC([2H])([2H])C([2H])([2H])N(c2cc3c(cn2)NC(c2c(F)cccc2F)=Nc2c(C)n[nH]c2-3)C1([2H])[2H] [Example 14, 2,2,3,3,5,5,6,6-octadeuterio-4-[8-(2,6-difluorophenyl)-5-methyl-3,4,7,9,12-pentazatricyclo[8.4.0.02,6]tetradeca-1(10),2(6),4,7,11,13-hexaen-13-yl]morpholine] | < 0.1 | L (L (Likely)”: ER≥2.5) | H (H (High permeability)”: A2B (B2A)>5) | H (H (High permeability)”: A2B (B2A)>5) |
| Cc1n[nH]c2c1N=C(c1c(F)cccc1F)Nc1cnc(N3CCC[C@@H](C#N)C3)cc1-2 [Example 18, (3R)-1-[8-(2,6-difluorophenyl)-5-methyl-3,4,7,9,12-pentazatricyclo[8.4.0.02,6]tetradeca-1(10),2(6),4,7,11,13-hexaen-13-yl]piperidine-3-carbonitrile] | < 0.1 | L (L (Likely)”: ER≥2.5) | H (H (High permeability)”: A2B (B2A)>5) | M (M (Moderate permeability)”: 1≤A2B (B2A)≤5) |
| [2H]C1([2H])OC([2H])([2H])C([2H])([2H])N(c2cc3c(cn2)NC(c2c(F)cccc2F)=Nc2cn[nH]c2-3)C1([2H])[2H] [Example 20, 2,2,3,3,5,5,6,6-octadeuterio-4-[8-(2,6-difluorophenyl)-3,4,7,9,12-pentazatricyclo[8.4.0.02,6]tetradeca-1(10),2(6),4,7,11,13-hexaen-13-yl]morpholine] | < 0.1 | L (L (Likely)”: ER≥2.5) | H (H (High permeability)”: A2B (B2A)>5) | M (M (Moderate permeability)”: 1≤A2B (B2A)≤5) |
| Fc1cccc(F)c1C1=Nc2c(Cl)n[nH]c2-c2cc(N3CCOCC3)ncc2N1 [Example 23, 4-(3-chloro-5-(2,6-difluorophenyl)-1,6-dihydropyrazolo[4,3-d]pyrido[4,3-f][1,3]diazepin-9-yl)morpholine] | < 0.1 | L (L (Likely)”: ER≥2.5) | H (H (High permeability)”: A2B (B2A)>5) | M (M (Moderate permeability)”: 1≤A2B (B2A)≤5) |
| C[C@H]1CN(c2cc3c(cn2)NC(c2c(F)cccc2F)=Nc2c(Cl)n[nH]c2-3)C[C@H](C)O1 [Example 26, (2S,6S)-4-(3-chloro-5-(2,6-difluorophenyl)-1,6-dihydropyrazolo[4,3-d]pyrido[4,3-f][1,3]diazepin-9-yl)-2,6-dimethylmorpholine] | < 0.1 | L (L (Likely)”: ER≥2.5) | H (H (High permeability)”: A2B (B2A)>5) | H (H (High permeability)”: A2B (B2A)>5) |
| Cc1n[nH]c2c1N=C(c1c(F)cccc1F)Nc1cnc(-c3cnn(CC(F)F)c3)cc1-2 [Example 28, 13-[1-(2,2-difluoroethyl)pyrazol-4-y1]-8-(2,6-difluorophenyl)-5-methyl-3,4,7,9,12-pentazatricyclo[8.4.0.02,6]tetradeca-1(10),2(6),4,7,11,13-hexaene] | ≥ 0.1 | L (L (Likely)”: ER≥2.5) | H (H (High permeability)”: A2B (B2A)>5) | M (M (Moderate permeability)”: 1≤A2B (B2A)≤5) |
| Fc1cccc(F)c1C1=Nc2cn[nH]c2-c2cc(N3CCOCC3)ncc2N1 [Example 33, 4-[8-(2,6-difluorophenyl)-3,4,7,9,12-pentazatricyclo[8.4.0.02,6]tetradeca-1(10),2(6),4,7,11,13-hexaen-13-yl]morpholine] | < 0.1 | L (L (Likely)”: ER≥2.5) | H (H (High permeability)”: A2B (B2A)>5) | M (M (Moderate permeability)”: 1≤A2B (B2A)≤5) |
| Cc1n[nH]c2c1N=C(c1c(F)cccc1F)Nc1c-2cc(N2CCC(C)(O)CC2)nc1C [Example 41, 1-(5-(2,6-difluorophenyl)-3,7-dimethyl-1,6-dihydropyrazolo[4,3-d]pyrido[4,3-f][1,3]diazepin-9-yl)-4-methylpiperidin-4-ol] | < 0.1 | L (L (Likely)”: ER≥2.5) | H (H (High permeability)”: A2B (B2A)>5) | M (M (Moderate permeability)”: 1≤A2B (B2A)≤5) |
| Cn1cc(-c2cc3c(cn2)NC(c2c(F)cccc2F)=Nc2c(Cl)n[nH]c2-3)cn1 [Example 54, 3-chloro-5-(2,6-difluorophenyl)-9-(1-methyl-1H-pyrazol-4-yl)-1,6-dihydropyrazolo[4,3-d]pyrido[4,3-f][1,3]diazepine] | < 0.1 | L (L (Likely)”: ER≥2.5) | H (H (High permeability)”: A2B (B2A)>5) | M (M (Moderate permeability)”: 1≤A2B (B2A)≤5) |

More lines, main results first:

| Kp uu [1] | Caco-2 ER (Caco-2 cells) | Caco-2 B2A (10^−6 cm/s) (Caco-2 cells) | SMILES | Caco-2 A2B (10^−6 cm/s) (Caco-2 cells) |
| --- | --- | --- | --- | --- |
| < 0.1 | L (L (Likely)”: ER≥2.5) | H (H (High permeability)”: A2B (B2A)>5) | Fc1cccc(F)c1C1=Nc2c(Cl)n[nH]c2-c2cc(N3CCOCC3)ccc2N1 (single isomer, unassigned) [Example 35, 4-(3-chloro-5-(2,6-difluorophenyl)-1,6-dihydrobenzo[d]pyrazolo[3,4-f][1,3]diazepin-9-y1)morpholine] | H (H (High permeability)”: A2B (B2A)>5) |
| < 0.1 | L (L (Likely)”: ER≥2.5) | H (H (High permeability)”: A2B (B2A)>5) | Cc1n[nH]c2c1N=C(c1c(F)cccc1F)Nc1ccc(N3CCO[C@H](C(C)(C)O)C3)cc1-2 (single isomer, unassigned) [Example 36] | M (M (Moderate permeability)”: 1≤A2B (B2A)≤5) |
| < 0.1 | L (L (Likely)”: ER≥2.5) | H (H (High permeability)”: A2B (B2A)>5) | Cc1n[nH]c2c1N=C(c1c(F)cccc1F)Nc1c-2cc(N2CCO[C@@H](C(C)(C)O)C2)nc1C (single isomer, unassigned) [Example 39] | M (M (Moderate permeability)”: 1≤A2B (B2A)≤5) |
| < 0.1 | L (L (Likely)”: ER≥2.5) | H (H (High permeability)”: A2B (B2A)>5) | Cc1n[nH]c2c1N=C(c1c(F)cccc1F)Nc1cnc(N3C[C@@H]4C[C@H]3CO4)cc1-2 [Example 6, (1S,4S)-5-[8-(2,6-difluorophenyl)-5-methyl-3,4,7,9,12-pentazatricyclo[8.4.0.02,6]tetradeca-1(10),2(6),4,7,11,13-hexaen-13-y1]-2-oxa-5-azabicyclo[2.2.1]heptane] | M (M (Moderate permeability)”: 1≤A2B (B2A)≤5) |
| < 0.1 | L (L (Likely)”: ER≥2.5) | H (H (High permeability)”: A2B (B2A)>5) | [2H]C([2H])([2H])c1n[nH]c2c1N=C(c1c(F)cccc1F)Nc1cnc(N3CCO[C@H](C)C3)cc1-2 [Example 27, (2R)-4-[8-(2,6-difluorophenyl)-5-(trideuteriomethyl)-3,4,7,9,12-pentazatricyclo[8.4.0.02,6]tetradeca-1(10),2(6),4,7,11,13-hexaen-13-y1]-2-methyl-morpholine] | H (H (High permeability)”: A2B (B2A)>5) |
| < 0.1 | L (L (Likely)”: ER≥2.5) | H (H (High permeability)”: A2B (B2A)>5) | Cc1n[nH]c2c1N=C(c1c(F)cccc1F)Nc1c-2cc(N2CCO[C@@H](CO)C2)nc1C [Example 37, (R)-(4-(5-(2,6-difluorophenyl)-3,7-dimethyl-1,6-dihydropyrazolo[4,3-d]pyrido[4,3-f][1,3]diazepin-9-yl)morpholin-2-y1)methanol] | M (M (Moderate permeability)”: 1≤A2B (B2A)≤5) |
